Reference: patent US5770623A, “Argine antagonists for inhibition of systemic hypotension associated with nitric oxide production or endothelial derived relaxing factor” (Board of Regents, The University of Texas System, priority 1995, dated 1998)
“Also recorded” adds a separate entry of the source. Like-named read-outs stand apart in the source and are kept apart here.

Key:
rabbit aortic rings = assay: ACh-induced relaxation of isolated rabbit aortic rings; conditions: for effect on ACh-induced vasorelaxation: NE-preconstricted rabbit aorta, FIG. 11
Description: FIG. 9b compares concentration-response relationships for the same set of mono- and disubstituted arginine analogs as FIG. 9a, plus an additional dimethyl analog with the two methyl groups on different guanidino nitrogens. The test is for inhibition of ACh-induced vasorelaxation in isolated rabbit aortic rings. The points plotted represent means±S.E. of the maximum responses to ACh observed in the presence of the indicated concentrations of analogs (n=4).
(§1) Guinea pig pulmonary artery (GP PA), rat and rabbit aorta (Ao), and dog coronary (CA) and femoral artery (FA) were precontracted with NE (1 μM) and relaxed with a single concentration of ACh. Concentration of ACh: GP PA 1 μM, rat Ao […], rabbit Ao 0.3, dog CA […] and […] 0.1 μM. […] The concentrations of L-citrulline (L-cit), D-arginine (D-arg) and L-arginine (L-arg) were all 0.5 mM. Bars are mean values±SEM (n=4-6).
FIG. 11 contains representative physiograph tracings which depict ACh-induced relaxation of NE-preconstricted rings prepared from rabbit aorta (upper panel) and human internal mammary artery (lower panel).

endotoxin-treated dogs = format: in vivo, dog; parameters: blood pressure after L-arginine / change in SAP after L-arginine: dose or concentration left out as unconfirmed; conditions: for Cardiac Output / Heart Rate / Systemic Arterial Pressure / Systemic Vascular Resistance: Table 1, Study 1: Endotoxin-treated (n = 4)
Experimental: Animals: Studies were carried out on 12 conditioned mongrel dogs (9 males and 3 females) weighing 22-32 kg (avg=25.3 kg). Animal care was in accordance with the recommendations of the American Association for Accreditation of Laboratory Animal Care, and met all standards prescribed by the Guide for the Care and Use of Laboratory Animals (Guide for the Care and Use of Laboratory Animals (1978) Dept. of Health, Education and Welfare, Washington, D.C. (Publ. No. 78-23). Animal protocols were approved by The University of Texas Animal Welfare Committee. The dogs were fasted overnight prior to the day of experimentation. They were anesthetized with sodium pentobarbital (25 mg/kg I.v.). Dogs were then endotracheally intubated and ventilated with a piston-driven respirator (Harvard instruments) using room air at a tidal volume of 20 ml/kg and at a rate of 10 to 12 breaths per minute, adjusted to achieve a normal arterial pH and pCO2 (Instrumentation Laboratories 1L13012 pH/Blood Gas Analyzer). Catheters were placed percutaneously into the femoral and pulmonary arteries; In the latter, a flow-directed thermal-dilation catheter was used (Abbott Critical Care Systems).
Physiologic measurements: Mean SAP and heart rate were continuously monitored (Parametron 7048 Monitoring System, Roche) and stored on a magnetic disk using an analog-to-digital converter (Scientific Solutions, Inc.). Cardiac output (CO) was determined as the mean of six measurements by thermal-dilution. Systemic vascular resistance was calculated as (SAP X80)/CO and expressed as […].
Protocol: After the blood pressure and heart rate stabilized, endotoxin (40 ug/kg, in 10 ml of phosphate-buffered saline (PBS), pH 7.4) was infused i.v. over 2 minutes. This dose of endotoxin typically induces severe and often lethal cardiovascular collapse in the dog. Blood pressure was monitored, and when either SAP fell below 60 mmHg or a stable nadir in systemic arterial pressure (SAP) was maintained for 10 minutes, L-NMA was administered (20 mg/kg in 5 ml of PBS i.v. over 1 min.). In most experiments, L-arginine (400 mg/kg in 20 mi PBS) was administered ten minutes later by i.v. infusion over 2 minutes. In control experiments, dogs without prior exposure to endotoxin received L-NMA alone. To simulate the hypotension observed in dogs receiving endotoxin, one group of dogs received a continuous i.v. infusion of nitroglycerin (2 mg/ml) at a rate adjusted to maintain the SAP at 60-70 mm Hg. Nitroglycerin-treated dogs then received L-NMA (20 mg/kg) and 20 minutes later L-arginine was administered […].

[1] = test system: murine endothelial cells exposed to Gamma-Interferon and TNF (nitric oxide production); assay: Inhibition of nitrite production by MBEC exposed to IFN (100 U/ml) and TNF (500 U/ml); format: cell-based; conditions: for IC50: Mus musculus, Endothelial cell
Experimental: Endothelial cells--MBEC's were isolated from murine brain microvessels and cultured on gelatin-coated tissue culture dishes in DME/F12 media supplemented with 2% PPPHS, 5% FBS (Hyolone), 50 μg/ml ECGF (Biomed Tech), and 10 U/ml heparin (Sigma) as previously described (Belloni et al. 1989). The endothelial derivation of MBEC's was determined by the presence of a non-thrombogenic surface to platelets and immunofluorescent staining for Factor VIII related antigen. MBEC's were used between passage 6-9 for all experiments.
Nitrite Assay--MBE cells were cultured on gelatin-coated well plates (Corning) in 100 μl of culture medium and treated with cytokines at 3 days post-confluence. After 48 hours, nitrite production was determined by a colorimetric assay. […] All treatments were performed in triplicate and data presented as the mean value±standard deviation. […]
production by murine endothelial cells exposed to GammaInterferon (100
U/ml) and TNF (500 U/ml) in vitro.

endotoxemic dogs = assay: Endotoxin-induced hypotension in dogs (Example 5); format: in vivo, dog
Experimental: Administration of ET to dogs was clearly more toxic and less predictable than TNF administration. […] Within 1.5 minutes the blood pressure increased by 33±2.5 mmHg.

[2] = test system: isolated guinea pig heart; assay: Histamine-induced nitrite release and coronary flow in isolated perfused guinea pig heart; conditions: for effect on coronary flow (vasodilation): histamine-elicited; for effect on EDRF/NO (nitrite) release: histamine-induced, FIG. 13
Experimental: Histamine was administered as a rapid bolus injection into the aorta and net nitrite release during the subsequent 2.5 minutes was determined.

[3] = test system: dog coronary (CA) and femoral artery (FA); assay: ACh-induced relaxation of dog coronary and femoral artery; conditions: NMMA 100 μM
Experimental: as §1

[4] = test system: murine endothelial cells exposed to Gamma-Interferon and TNF (nitric oxide production); conditions: mouse endothelial cells, immunomodulators and endotoxin; cited from earlier work
anesthetized guinea pig = assay: Pressor effect in the anesthetized guinea pig; format: in vivo; conditions: 1-10 mg/kg i.v. (L-NMA)
Description: Points are mean changes in diastolic arterial pressure (±SEM; n=4-5). Control systolic and diastolic BP was 75±3 and 51±3 mm Hg, respectively.

[5] = test system: mongrel dogs with TNF-induced hypotension; conditions: Kilbourn et al. 1990; listed as L-NMA; cited from earlier work
[6] = target: EMT6 enzyme system (NO formation from L-arginine) (Mus musculus, UniProt P29477); assay: Arginine-dependent nitrite synthesis by cytosol of stimulated EMT6 cells; format: biochemical, murine; conditions: Lineweaver-Burke
EMT6 enzyme system (NO formation from L-arginine), sequence (P29477 whole entry): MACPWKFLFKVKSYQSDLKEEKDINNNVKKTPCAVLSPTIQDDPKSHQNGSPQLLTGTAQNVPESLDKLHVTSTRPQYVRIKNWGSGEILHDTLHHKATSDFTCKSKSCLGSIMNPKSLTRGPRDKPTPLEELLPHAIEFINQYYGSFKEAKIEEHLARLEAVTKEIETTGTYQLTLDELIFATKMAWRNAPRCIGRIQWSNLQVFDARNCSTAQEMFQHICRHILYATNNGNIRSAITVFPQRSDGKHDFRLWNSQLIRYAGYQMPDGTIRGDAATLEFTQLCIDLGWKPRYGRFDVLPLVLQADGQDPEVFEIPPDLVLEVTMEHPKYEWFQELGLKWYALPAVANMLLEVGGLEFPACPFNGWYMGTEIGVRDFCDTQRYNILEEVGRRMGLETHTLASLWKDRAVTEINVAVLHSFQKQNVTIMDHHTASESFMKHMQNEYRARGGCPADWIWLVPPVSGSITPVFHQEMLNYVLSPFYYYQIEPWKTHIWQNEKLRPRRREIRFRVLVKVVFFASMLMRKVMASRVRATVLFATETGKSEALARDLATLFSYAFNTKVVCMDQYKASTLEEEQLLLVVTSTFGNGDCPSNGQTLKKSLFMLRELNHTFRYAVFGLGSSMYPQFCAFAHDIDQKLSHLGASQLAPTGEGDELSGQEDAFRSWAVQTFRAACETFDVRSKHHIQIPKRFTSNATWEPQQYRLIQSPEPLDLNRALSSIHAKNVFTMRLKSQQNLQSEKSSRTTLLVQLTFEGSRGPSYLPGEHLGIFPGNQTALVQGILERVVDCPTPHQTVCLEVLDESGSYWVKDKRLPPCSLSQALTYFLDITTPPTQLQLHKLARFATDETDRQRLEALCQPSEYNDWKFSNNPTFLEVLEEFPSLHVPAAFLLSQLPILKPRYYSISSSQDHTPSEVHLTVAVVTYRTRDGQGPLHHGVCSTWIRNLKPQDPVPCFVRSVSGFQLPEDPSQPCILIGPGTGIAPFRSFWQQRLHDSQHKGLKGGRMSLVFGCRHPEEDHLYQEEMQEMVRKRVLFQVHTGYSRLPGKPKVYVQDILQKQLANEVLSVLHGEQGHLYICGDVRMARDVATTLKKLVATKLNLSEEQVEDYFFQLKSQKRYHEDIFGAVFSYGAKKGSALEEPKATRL
Protocol: Thus EMT6 cytosolic preparations (i.e., cell-free solutions) were prepared and an enzyme activity was characterized which forms NO and citrulline from arginine. This reaction requires NADPH (FIG. 18 and 19) and other cofactors.
Incubation mixtures were 100 μl total volume containing: 40 μl cytosol (100,000×g supernatant), 2 mM L-arginine, 2 mM NADPH, 20 mM TRIS (pH 8.0) and a "cocktail" of protease inhibitors.
From kinetic studies an apparent Michaelis-Menton constant for L-arginine utilization by the enzyme was deduced. FIG. 20 is a Lineweaver-Burke plot for synthesis of nitrite from L-arginine by cytosol from stimulated EMT6 cells. The rate of nitrite formation was evaluated over a range of L-arginine (ARG) concentrations (from 0.03-2.0 mM) under conditions similar to that described for FIG. 18, except that incubates contained 50 μl cytosol in a total volume of 80 μl. Open and filled circles represent results obtained with each of two cytosol preparations. […] N^G -substituted arginine analogs were screened for precise quantitation of their ability to inhibit arginine-dependent NO formation by the EMT6 enzyme system.

SMILES: N=C(N)NCCC[C@H](N)C(=O)O [L-arginine, reference compound]
- effect on ACh-induced vasorelaxation (rabbit aortic rings): restores relaxation
- effect of L-arginine on L-NMA effect (endotoxin-treated dogs; 400 mg/kg L-arginine): reversed the effect of L-NMA and restored the endotoxin-induced hypotension
- blood pressure after L-arginine (endotoxin-treated dogs; 2 hours after L-NMA dosing, decline): < 45 mm Hg
- blood pressure after L-arginine (endotoxin-treated dogs; FIG. 24, L-arginine): 43 mm Hg
- change in SAP after L-arginine (endotoxin-treated dogs; FIG. 24, L-arginine): -77 mm Hg
- Cardiac Output (endotoxin-treated dogs): 2.31 ± 0.43 L/min
- Heart Rate (endotoxin-treated dogs): 116.7 ± 18.8 beats/min
- Systemic Arterial Pressure (endotoxin-treated dogs): 52.7 ± 8.8 mmHg
- Systemic Vascular Resistance (endotoxin-treated dogs): 1851 ± 171 dynes-sec/cm^5
- reversal of NMMA inhibition of nitrite production ([1]; 8 mM L-arginine vs 1 mM NMMA): completely reversing the effects of 1 mM NMMA
- nitrite concentration upon adding L-arginine back to arginine-free medium ([1]; MBEC exposed to TNF and IFN): increased in a dose dependent manner
- effect of L-arginine after NMMA (endotoxemic dogs; L-arginine 100 mg/kg): fall precipitously below the pre-NMMA level
- effect on coronary flow (vasodilation) [2]: restored
- effect on EDRF/NO (nitrite) release [2]: restoration

SMILES: CNC(=N)NCCC[C@H](N)C(=O)O [NMMA, N^G -methyl-L-arginine]
- effect on ACh-induced vasorelaxation (rabbit aortic rings): attenuate ACh-induced vasorelaxation
- inhibition of EDRF/NO in vascular preparation (rabbit aortic rings; rabbit aorta, NMMA 100 μM): arginine reversible inhibitor of EDRF/NO
- anti-hypotensive effect in endotoxemic dog (endotoxin-treated dogs; 20 mg/kg L-NMA): rapid and strong anti-hypotensive effect; also recorded: restores blood pressure to normal or near normal values
- increase in SAP by L-NMA (endotoxin-treated dogs; FIG. 24, 20 mg/kg, within 10 min): 73 mm Hg
- duration of maintained blood pressure, first dose (endotoxin-treated dogs; FIG. 24, first dose of L-NMA): 48 min
- SAP maintained after second dose (endotoxin-treated dogs; FIG. 24, for 2 hrs): greater than 100 mm Hg
- time to normalization / reversal of hypotension (endotoxin-treated dogs; L-NMA 20 mg/kg i.v.): ≤ 1.5 min
- increase in SVR by L-NMA (endotoxin-treated dogs; L-NMA, endotoxin-treated): 2060±338 dynes-sec/cm^5
- Cardiac Output (endotoxin-treated dogs): 2.03 ± 0.32 L/min
- Heart Rate (endotoxin-treated dogs): 123.3 ± 4.8 beats/min
- Systemic Arterial Pressure (endotoxin-treated dogs): 107 ± 9.6 mmHg
- Systemic Vascular Resistance (endotoxin-treated dogs): 4462 ± 552 dynes-sec/cm^5
- duration of normal blood pressure with additional dose (endotoxin-treated dogs; additional dose of L-NMA 20 mg/kg): at least 2 hours
- increase in SAP by L-NMA (endotoxin-treated dogs; endotoxemic dogs, L-NMA 20 mg/kg, n=4): 47.8±6.8 mmHg
- HR and CO after L-NMA (endotoxin-treated dogs; endotoxin-treated): unchanged
- pressor effect of doses greater than 20 mg/kg (endotoxin-treated dogs; limited dose response studies, versus 20 mg/kg): do not have a significantly greater pressor effect
- duration of normal blood pressure after single dose (endotoxin-treated dogs; single i.v. dose L-NMA 20 mg/kg): 30 to 60 min
- inhibition of EDRF/NO in vascular preparation [3]: arginine reversible inhibitor of EDRF/NO
- concentration giving maximal inhibition of nitrite production ([1]; MBEC exposed to TNF and IFN): 1 mM
- effect of NMMA on nitrite production ([1]; MBEC exposed to TNF and IFN): inhibited
- IC50 ([1]; 48 h, read-out: ED50% (effective dose that inhibited 50% of the nitrite production), murine endothelial cells, Gamma-Interferon (100 U/ml) and TNF (500 U/ml), in vitro): 337 µM
- IC50 ([1]; read-out: E.D. 50% for inhibition of nitrite production, MBEC exposed to TNF and IFN): 330 µM
- effect on nitrite accumulation [4]: blocked
- effect on diastolic BP / pressor effect (words) (anesthetized guinea pig): increase the resting blood pressure
- effect on diastolic BP / pressor effect (words) (anesthetized guinea pig; listed as L-NMA): sustained rise in diastolic BP
- reversal of TNF-induced hypotension [5]: completely reversed; also recorded: substantially reversed
- blood pressure with readministration of NMMA (endotoxemic dogs; FIG. 24): maintained
- increase in blood pressure by NMMA (endotoxemic dogs; NMMA 5 mg/kg after ET 1 μg/kg): 33±2.5 mmHg
- time to blood pressure increase (endotoxemic dogs; NMMA 5 mg/kg after ET 1 μg/kg): ≤ 1.5 min
- increase in blood pressure by NMMA (endotoxemic dogs; lethal shock, 100 μg/ml endotoxin, NMMA 20 mg/kg): 65 mm
- mode of inhibition [6]: competitive inhibitor
- effect on coronary flow (vasodilation) [2]: attenuated
- effect on EDRF/NO (nitrite) release [2]: inhibition
- effect on EDRF/NO (nitrite) release ([2]; listed as L-NMA): inhibits EDRF/NO release
